Patent publication US20240058335A1, “METHODS FOR TREATMENT OF CANCER USING ABL INHIBITORS AND DRUGS TARGETING THE MEVALONATE PATHWAY” (Duke University, priority 2021, published 2024)

Legend:
[1] = system: PC9 cells; settings: read-out: Calculated IC50, dose-response assay
[2] = system: H460 cells; experiment: Cell viability dose-response assay (CellTiter-Glo), IC50 calculation; assay type: cell-based, human; settings: H460; dose-response assay; read-out: Calculated IC50
[3] = system: HCC1954-LCC1 cells; experiment: Intracranial injection model of HER2+ breast cancer brain metastasis; assay type: in vivo, mice; settings: oral gavage
Experimental: Nude mice were injected intracranially with HCC1954-LCC1 cells on Day 0. On Day 10, mice were divided evenly between treatment groups (Vehicle or GNF5) based on tumor burden and weight. Tumors were monitored weekly by BLI until experimental endpoint (Day 55). (FIG. 15A) Overall survival curve of nude mice injected intracranially with HCC1954-LCC1 and treated with vehicle (n=9) or GNF5 (n=10) and representative BLI images of mice at day 33 post-injection. (FIG. 16B) Overall survival curve of nude mice injected intracranially with HCC1954-LCC1 ABL1/2 KO (n=15) or control cells (n=15) and representative of BLI images of mice at day 21 post-injection. Statistical analysis was performed using Log-rank (Mantel-Cox) test.

[4] = system: PC9, PC9 GR4 and H460 cells; experiment: MitoSOX staining, mitochondrial ROS by FACS; assay type: cell-based, human; settings: EGFR mutant PC9 and PC9 GR4 cells, IC50 doses, 24 hours
[5] = system: PC9 BrM3 cells; experiment: Cell viability dose-response assay (CellTiter-Glo), IC50 calculation; assay type: cell-based, human; settings: PC9 BrM3; dose-response assay; read-out: Calculated IC50

O=C(NCCO)c1cccc(-c2cc(Nc3ccc(OC(F)(F)F)cc3)ncn2)c1 [GNF5]
IC50 [1]: 10 µM
IC50 [2]: 15 µM
animal survival [3]: markedly increased animal survival
metastatic outgrowth and brain colonization (BLI) [3]: impaired metastatic outgrowth and colonization of the brain parenchyma
mitochondrial reactive oxygen species (MitoROS) levels [4]: increased
IC50 [5]: 10 µM
